This passage reports IC50 and Ki results from patent US9073876B2, “Flap modulators” (JANSSEN PHARMACEUTICA NV, priority 2013, dated 2015).

Counter-ions that a name gives are not always drawn. Where only a bound is given, the exact number is not on record here.

For experiment [1], the system named is leukotriene pathway in human whole blood (LTB4 levels). The experiment is described as follows: Human whole blood assay (LTB4). In kind it is cell-based. To be noted: human whole blood diluted 1:1 in RPMI, stimulated with calcium ionophore A23187; single replicate. Put shortly: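 Heparinised human whole blood, diluted 1:1 in RPMI, was pre-incubated with test compounds for 15 min at 37° Celsius, then stimulated with A23187 (7 μg/mL) for 30 min at 37° Celsius. Plasma LTB4 was measured by immunoassay kit; IC50 from 4-parameter fit; single replicate, at least one healthy donor.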

Another experiment has as its target human FLAP (Homo sapiens (Human), UniProt P20292). The experiment is described as follows: FLAP binding assay (HTRF). To be noted: human FLAP-containing membranes, HTRF format; average of two assay plates, duplicates; read-out: FLAP Binding wild type HTRF Ki. Put shortly: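 Samples were run in duplicate on each of two assay plates, the results were averaged, and the signal was expressed as an HTRF ratio.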

Sequence of human FLAP (P20292 whole entry): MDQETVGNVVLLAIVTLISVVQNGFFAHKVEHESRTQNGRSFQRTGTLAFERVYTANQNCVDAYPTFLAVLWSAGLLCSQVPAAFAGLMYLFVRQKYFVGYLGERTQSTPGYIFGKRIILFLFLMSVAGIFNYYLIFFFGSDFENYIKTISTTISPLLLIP

Consider `COc1nc(N)cc(Oc2c(C3CCC3)ccc(-c3cnc(N)cn3)c2F)n1` [Example 100, 6-[3-(5-Aminopyrazin-2-yl)-6-cyclobutyl-2-fluorophenoxy]-2-methoxypyrimidin-4-amine], for which, in experiment [1], the IC50 was 12.6 nM. Further, the Ki at human FLAP amounted to 1 nM.
Taken in the same sequence, the figures for `Nc1cnc(-c2ccc(C3CCC3)c(OCc3c(F)cccc3F)c2F)cn1` [Example 31, 5-{4-Cyclobutyl-3-[(2,6-difluorobenzyl)oxy]-2-fluorophenyl}pyrazin-2-amine] were 1960 nM and 170 nM.
Regarding `CS(=O)(=O)c1cccc(COc2c(C3CCC3)ccc(-c3cnc4c(c3)OCCN4)c2F)c1` [Example 188, 7-(4-Cyclobutyl-2-fluoro-3-{[3-(methylsulfonyl)-benzyl]oxy}phenyl)-3,4-dihydro-2H-pyrido[3,2-b][1,4]oxazine], in experiment [1], the IC50 was 1100 nM. Moreover, the Ki at human FLAP was found to be 8.6 nM.
For `Nc1cnc(-c2ccc(C3CCC3)c(Oc3ncccc3Cl)c2F)cn1` [Example 122, 5-{3-[(3-Chloropyridin-2-yl)oxy]-4-cyclobutyl-2-fluorophenyl}pyrazin-2-amine], in that order: 460 nM and 4 nM.
Taken in the same sequence, the figures for `COc1c(C2CCC2)ccc(-c2ncc(N)nc2C#N)c1F` [Example 172, 6-amino-3-(4-cyclobutyl-2-fluoro-3-methoxyphenyl)pyrazine-2-carbonitrile] were 1660 nM and 394 nM.
For `COc1cc(Oc2c(C(C)(C)C)ccc(-c3cnc(N)cn3)c2F)ncn1` [Example 204, 5-{4-tert-Butyl-2-fluoro-3-[(6-methoxypyrimidin-4-yl)oxy]phenyl}pyrazin-2-amine], in that order: 171 nM and 81.5 nM.
`CS(=O)(=O)c1ccnc(Oc2c(C3CCC3)ccc(-c3cnc(N)cn3)c2F)n1` [Example 95, 5-(4-Cyclobutyl-2-fluoro-3-{[4-(methylsulfonyl)pyrimidin-2-yl]oxy}phenyl)pyrazin-2-amine]: the IC50 in experiment [1] is over 1000 nM. Besides, on human FLAP, the Ki is 5 nM.
Taken in the same sequence, the figures for `COCc1cc(Oc2c(C3CCC3)ccc(-c3cnc(N)cn3)c2F)nc(N)n1` [Example 142, 4-[3-(5-Aminopyrazin-2-yl)-6-cyclobutyl-2-fluorophenoxy]-6-(methoxymethyl)pyrimidin-2-amine] were 18.5 nM and 1.7 nM.
For `CC(C)(C)c1ccc(-c2cnc(N)cn2)c(F)c1O[Si](C)(C)C(C)(C)C` [Example 200, 5-(4-tert-Butyl-3-{[tert-butyl(dimethyl)silyl]oxy}-2-fluorophenyl)pyrazin-2-amine], in that order: 1360 nM and 155 nM.
For `Nc1cnc(-c2ccc(C3CCC3)c(Oc3cc(Cl)nc(N)n3)c2F)cn1` [Example 143, 4-[3-(5-Aminopyrazin-2-yl)-6-cyclobutyl-2-fluorophenoxy]-6-chloropyrimidin-2-amine], in that order: 37.7 nM and 2.9 nM.
In the case of `Nc1cnc(-c2ccc(C3CCC3)c(OCC(O)CNc3cc(N)ncn3)c2F)cn1` (racemic) [Example 59, racemic 1-(3-(5-Aminopyrazin-2-yl)-6-cyclobutyl-2-fluorophenoxy)-3-((6-aminopyrimidin-4-yl)amino)propan-2-ol], in experiment [1], the IC50 is 1540 nM. Also, the Ki on human FLAP was determined as 327 nM.
Taken in the same sequence, the figures for `COC(=O)c1coc(COc2c(C3CCC3)ccc(-c3cnc(N)cn3)c2F)n1` [Example 281, Methyl 2-{[3-(5-aminopyrazin-2-yl)-6-cyclobutyl-2-fluorophenoxy]methyl}-1,3-oxazole-4-carboxylate trifluoroacetic acid salt] were 370 nM and 101 nM.
For `COc1c(C(C)(C)C)ccc(-c2cnc(N)cn2)c1F` [Example 205, 5-(4-tert-Butyl-2-fluoro-3-methoxyphenyl)pyrazin-2-amine], in that order: 150 nM and 40.2 nM.

Broadly, the IC50 is the concentration that gives 50% inhibition. For orientation: Ki means a dissociation constant, usually derived from enzyme kinetics or from competition with a known ligand.
